Consider 58 compounds from US12295396B2, “Antagonists of T2R54 and compositions and uses thereof” (Firmenich Incorporated, priority 2018, dated 2025).

pIC50: −log10 of the molar value.

As usually defined, the pIC50 is −log10 of the IC50, conventionally taken in molar units.

The first experiment has as its target T1, hT2R54 (Homo sapiens, UniProt P59534).
T1 construct: expressed in transfected cells; it overexpresses a promiscuous G protein
T1 sequence (P59534 1-338): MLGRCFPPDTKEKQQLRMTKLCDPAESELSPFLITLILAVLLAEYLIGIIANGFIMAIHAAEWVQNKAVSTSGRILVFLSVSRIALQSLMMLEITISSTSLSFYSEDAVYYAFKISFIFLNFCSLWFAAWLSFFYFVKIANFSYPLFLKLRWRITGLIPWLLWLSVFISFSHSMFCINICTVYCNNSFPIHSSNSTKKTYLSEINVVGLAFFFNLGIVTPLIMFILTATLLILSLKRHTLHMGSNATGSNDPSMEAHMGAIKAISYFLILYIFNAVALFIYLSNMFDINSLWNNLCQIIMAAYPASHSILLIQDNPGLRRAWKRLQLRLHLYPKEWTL
Put plainly: Cell-based assay for measuring hT2R54 inhibition (FLIPR calcium, Fluo4AM, acetaminophen as bitter agonist). The conditions noted are these: FIG. 1; cells expressing hT2R54, not control host cells. The method, then: Cells stably expressing hT2R54 and a promiscuous G protein were seeded in 384 well plates 24 hours prior to the experiment. Cells were loaded with the calcium indicator Fluo4AM, washed and loaded in a FLIPR instrument with a compound plate containing increasing doses of acetaminophen in quadruplicates and prepared at 2× of final concentration. Baseline was recorded for 10 seconds, then 25 μl of […] was added onto 25 μl of cells and resulting changes in fluorescence were monitored over an additional 3 minutes. The host cell line overexpressing the G protein but not hT2R54 was treated as described above.
The ability of a test compound that blocks bitter taste elicited through hT2R54 was measured in this assay, as follows. Cells stably expressing hT2R54 and a promiscuous G protein were seeded in 384 well plates 24 hours prior to the experiment. Cells were loaded with the calcium indicator Fluo4AM, washed and loaded in a FLIPR instrument with a compound plate containing increasing doses of acetaminophen in buffer and increasing doses of acetaminophen with depicted fixed concentrations of Cmpd 109 (Table 4). Base line was recorded for 10 seconds, then 25 μl of compound and compound mixtures were added onto 25 μl of cells and resulting changes in fluorescence were monitored over an additional 3 minutes. The concentration of test compound that blocks half of the response when the bitter compound alone is present is presented as the EC50 or IC50 value.
In the examples above, the EC50 of compounds for blocking bitter taste elicited through T2R54 was measured in the same manner.
Regarding `CC(=O)Nc1ccc(O)cc1` [acetaminophen, reference compound], the “response of hT2R54-expressing cells to bitter tastant” value was “measurable change in intracellular calcium”.

The experiment is the same for the next values; noted with them: Table 2; cells stably expressing hT2R54 and a promiscuous G protein; read-out: hT2R54 IC50.
Consider `COc1ccc(F)cc1C(=O)N1CCN(CC(=O)Nc2cc3c(cc2C(C)=O)OCO3)CC1` [compound 2, N-(6-Acetylbenzo[d][1,3]dioxol-5-yl)-2-(4-(5-fluoro-2-methoxybenzoyl)piperazin-1-yl)acetamide], for which the pIC50 was 7.57. `CCCOC(=O)N1CCN(CC(=O)Nc2cc3c(cc2C(C)=O)OCO3)CC1` [compound 3, Propyl 4-(2-((6-Acetylbenzo[d][1,3]dioxol-5-yl)amino)-2-oxoethyl)piperazine-1-carboxylate]: the pIC50 is 7.82. As for `CC(=O)c1cc2c(cc1NC(=O)CN1CCN(C(=O)NC(C)C)CC1)OCO2` [compound 4, 4-(2-((6-Acetylbenzo[d][1,3]dioxol-5-yl)amino)-2-oxoethyl)-N-isopropylpiperazine-1-carboxamide], the negative-log IC50 (pIC50) is 7.47. For `CC(=O)c1cc2c(cc1NC(=O)CN1CCN(S(=O)(=O)C(C)C)CC1)OCO2` [compound 5, N-(6-acetylbenzo[d][1,3]dioxol-5-yl)-2-(4-(isopropylsulfonyl)piperazin-1-yl)acetamide], the pIC50 is 6.89. Still for that read-out and setting: the figure for `COc1cc2c(cc1NC(=O)CN1CCN(C(=O)CC(C)C)CC1)OCO2` [compound 6, N-(6-Methoxybenzo[d][1,3]dioxol-5-yl)-2-(4-(3-methylbutanoyl)piperazin-1-yl)acetamide] is 6.31; for `CC(=O)c1cc2c(cc1NC(=O)CN1CCN(C(C)=O)CC1)OCO2` [compound 7] it is 7.05.

In the case of `CCC(=O)N1CCN(CC(=O)Nc2cc3c(cc2C(C)=O)OCO3)CC1` [compound 8], the pIC50 is 7.30. For the compound `CCCC(=O)N1CCN(CC(=O)Nc2cc3c(cc2C(C)=O)OCO3)CC1` [compound 9], the pIC50 is 7.54. Turning to `CCCCC(=O)N1CCN(CC(=O)Nc2cc3c(cc2C(C)=O)OCO3)CC1` [compound 10], the pIC50 was 8.05. In the case of `CC(=O)c1cc2c(cc1NC(=O)CN1CCN(C(=O)C(C)C)CC1)OCO2` [compound 11], the pIC50 was 7.40. Regarding `CC(=O)c1cc2c(cc1NC(=O)CN1CCN(C(=O)C3CC3)CC1)OCO2` [compound 12], the pIC50 is 7.40. The same measure, in the same setting: the figure for `CC(=O)c1cc2c(cc1NC(=O)CN1CCN(C(=O)C(C)(C)C)CC1)OCO2` [compound 13] is 7.64. For the compound `CC(=O)c1cc2c(cc1NC(=O)CN1CCN(C(=O)CC(C)(C)C)CC1)OCO2` [compound 14], the pIC50 was 7.10. For `CC(=O)c1cc2c(cc1NC(=O)CN1CCN(C(=O)CC3CC3)CC1)OCO2` [compound 15], the pIC50 was 7.62. Regarding `CC(=O)c1cc2c(cc1NC(=O)CN1CCN(C(=O)C3CCCC3)CC1)OCO2` [compound 16], the pIC50 was 7.54. For `CC(=O)c1cc2c(cc1NC(=O)CN1CCN(C(=O)C3CCCCC3)CC1)OCO2` [compound 17], the pIC50 was 6.82. As to `CC(=O)c1cc2c(cc1NC(=O)CN1CCN(C(=O)CO)CC1)OCO2` [compound 18], the negative logarithm of the IC50 (pIC50) was 6.67. For the compound `COCC(=O)N1CCN(CC(=O)Nc2cc3c(cc2C(C)=O)OCO3)CC1` [compound 19], the negative-log IC50 (pIC50) was 7.22. Same read-out and setting: the figure for `CC(=O)c1cc2c(cc1NC(=O)CN1CCN(C(=O)COC(C)C)CC1)OCO2` [compound 20] is 6.77; for `COCCOCC(=O)N1CCN(CC(=O)Nc2cc3c(cc2C(C)=O)OCO3)CC1` [compound 21] it is 6.75; for `CC(=O)c1cc2c(cc1NC(=O)CN1CCN(C(=O)C3CCCCO3)CC1)OCO2` (stereo not shown) [compound 23] it is 7.74. As for `CC(=O)c1cc2c(cc1NC(=O)CN1CCN(C(=O)C3CCOCC3)CC1)OCO2` [compound 24], the pIC50 is 6.47.

Turning to `CC(=O)c1cc2c(cc1NC(=O)CN1CCN(C(=O)C3CCN(C)CC3)CC1)OCO2` [compound 25], the pIC50 was 5.36. Regarding `CC(=O)c1cc2c(cc1NC(=O)CN1CCN(C(=O)CN3CCCC3)CC1)OCO2` [compound 27], the pIC50 was 6.75.

In the case of `CC(=O)c1cc2c(cc1NC(=O)CN1CCN(C(=O)CN3CCOCC3)CC1)OCO2` [compound 28], the negative logarithm of the IC50 (pIC50) was 6.97. On to `CCOC(=O)N1CCN(CC(=O)Nc2cc3c(cc2C(C)=O)OCO3)CC1` [compound 29], for which the negative logarithm of the IC50 (pIC50) was 6.51. As for `CC(=O)c1cc2c(cc1NC(=O)CN1CCN(C(=O)OC(C)C)CC1)OCO2` [compound 30], the pIC50 is 7.40. Turning to `CC(=O)c1cc2c(cc1NC(=O)CN1CCN(C(=O)Oc3ccccc3)CC1)OCO2` [compound 31], the pIC50 is 6.58. The same measure, in the same setting: the figure for `CC(=O)c1cc2c(cc1NC(=O)CN1CCN(C(=O)NCc3ccccc3)CC1)OCO2` [compound 32] is 7.68; for `CC(=O)c1cc2c(cc1NC(=O)CN1CCN(C(=O)Nc3ccccc3)CC1)OCO2` [compound 33] it is 7.30; for `CC(=O)c1cc2c(cc1NC(=O)CN1CCN(C(=O)c3ccccc3)CC1)OCO2` [compound 34] it is 7.70.

Regarding `CC(=O)c1cc2c(cc1NC(=O)CN1CCN(C(=O)c3cccs3)CC1)OCO2` [compound 35], the pIC50 was 7.40. Consider `CC(=O)c1cc2c(cc1NC(=O)CN1CCN(C(=O)c3ccco3)CC1)OCO2` [compound 36], for which the pIC50 is 8.40. For the compound `CC(=O)c1cc2c(cc1NC(=O)CN1CCN(C(=O)c3ccsc3)CC1)OCO2` [compound 37], the pIC50 was 7.64. As for `CC(=O)c1cc2c(cc1NC(=O)CN1CCN(C(=O)c3cccc(O)c3)CC1)OCO2` [compound 38], the pIC50 is 7.30.

For `CC(=O)c1cc2c(cc1NC(=O)CN1CCN(C(=O)c3ccncc3)CC1)OCO2` [compound 39], the pIC50 was 7.15. For `CC(=O)c1cc2c(cc1NC(=O)CN1CCN(C(=O)c3ccccc3O)CC1)OCO2` [compound 40], the pIC50 was 7.10.

As for `COc1ccccc1C(=O)N1CCN(CC(=O)Nc2cc3c(cc2C(C)=O)OCO3)CC1` [compound 41], the pIC50 is 7.40. For `CC(=O)c1cc2c(cc1NC(=O)CN1CCN(C(=O)c3cccnc3)CC1)OCO2` [compound 42], the pIC50 was 7.22. Regarding `CC(=O)c1cc2c(cc1NC(=O)CN1CCN(C(=O)c3ccc(O)cc3)CC1)OCO2` [compound 43], the pIC50 was 7.10. Same read-out and setting: the figure for `CC(=O)c1cc2c(cc1NC(=O)CN1CCN(C(=O)c3ccccc3F)CC1)OCO2` [compound 44] is 7.30.

Turning to `CC(=O)c1cc2c(cc1NC(=O)CN1CCN(C(=O)c3ccc(F)cc3)CC1)OCO2` [compound 45], the pIC50 was 7.55. Turning to `CC(=O)c1cc2c(cc1NC(=O)CN1CCN(C(=O)c3cccc(F)c3)CC1)OCO2` [compound 46], the negative-log IC50 (pIC50) was 7.59. On to `COc1ccc(C(=O)N2CCN(CC(=O)Nc3cc4c(cc3C(C)=O)OCO4)CC2)cc1` [compound 47], for which the pIC50 was 7.68. Same read-out and setting: then `COc1cccc(C(=O)N2CCN(CC(=O)Nc3cc4c(cc3C(C)=O)OCO4)CC2)c1` [compound 48], with 7.89. Turning to `CC(=O)c1cc2c(cc1NC(=O)CN1CCN(C(=O)c3ccccn3)CC1)OCO2` [compound 49], the pIC50 was 7.00. In the case of `CC(=O)c1cc2c(cc1NC(=O)CN1CCN(C(=O)c3cccc(CO)c3)CC1)OCO2` [compound 50], the pIC50 was 6.40. Take `COCc1cccc(C(=O)N2CCN(CC(=O)Nc3cc4c(cc3C(C)=O)OCO4)CC2)c1` [compound 51]: the pIC50 was 6.63. For the compound `CC(=O)c1cc2c(cc1NC(=O)CN1CCN(C(=O)Cc3ccccc3)CC1)OCO2` [compound 52], the pIC50 is 7.29. With `CC(=O)c1cc2c(cc1NC(=O)CN1CCN(C(=O)Cc3ccccc3O)CC1)OCO2` [compound 53], the pIC50 is 7.74. Consider `COc1ccccc1CC(=O)N1CCN(CC(=O)Nc2cc3c(cc2C(C)=O)OCO3)CC1` [compound 54], for which the pIC50 is 7.62. On the same count and under the same terms, then `CC(=O)c1cc2c(cc1NC(=O)CN1CCN(C(=O)Cc3ccccc3F)CC1)OCO2` [compound 55], with 7.15; and `CC(=O)c1cc2c(cc1NC(=O)CN1CCN(C(=O)Cc3cccnc3)CC1)OCO2` [compound 56], with 7.10; and `CC(=O)c1cc2c(cc1NC(=O)CN1CCN(C(=O)Cc3cccc(O)c3)CC1)OCO2` [compound 57], with 7.00. Consider `COc1cccc(CC(=O)N2CCN(CC(=O)Nc3cc4c(cc3C(C)=O)OCO4)CC2)c1` [compound 58], for which the pIC50 is 7.22.

The same experiment, now with this note: other T2R54 bitter blockers (table after b418); read-out: hT2R54 IC50.
As for `Cc1cc(N2CCC(C(N)=O)CC2)nc(-c2ccccc2)n1` [A, 1-(6-Methyl-2-phenylpyrimidin-4-yl)piperidine-4-carboxamide], the pIC50 was 5.54. The same measure, in the same setting: the figure for `COc1cc2ncnc(NCc3cccc4c3OCO4)c2cc1OC` [B] is 5.74.
